One block for each molecule: values may come before it. Residues, ends and D or L forms follow the SMILES beside them. *: point of attachment. CF3 = FC(F)(F)*; Moc = COC(=O)*
Experiments:
Hamster [1] = assay: Plasma clearance after iv administration at 4 mg/kg in hamster; assay type: ADME, organism-based; parameters: dose 4 mg/kg, route intravenous; conditions: cricetinae, in vivo
[2] = Half life after iv administration at 4 mg/kg in hamster; assay type: ADME, organism-based; parameters: dose 4 mg/kg, route intravenous; conditions: cricetinae, in vivo
[3] = Solubility in water was evaluated.; assay type: physicochemical
[4] = Volume distribution after iv administration at 4 mg/kg in hamster; assay type: ADME, organism-based; parameters: dose 4 mg/kg, route intravenous; conditions: cricetinae, in vivo
[5] = Bioavailability after po administration at 4 mg/kg in hamster; assay type: ADME, organism-based, Cricetulus griseus; conditions: chinese hamster, in vivo
[6] = biological target: T1, Neutrophil elastase (Homo sapiens) (UniProt P08246); assay: Compound was evaluated in vivo for the inhibition of elastase in hamster bronchoalveolar lavage (BAL) 6 hour after an intratracheal dose of IL-8 at a concentration 10 mg/kg; assay type: organism-based; parameters: dose 10 mg/kg; conditions: Cricetulus griseus; Lung
T1 sequence (whole entry): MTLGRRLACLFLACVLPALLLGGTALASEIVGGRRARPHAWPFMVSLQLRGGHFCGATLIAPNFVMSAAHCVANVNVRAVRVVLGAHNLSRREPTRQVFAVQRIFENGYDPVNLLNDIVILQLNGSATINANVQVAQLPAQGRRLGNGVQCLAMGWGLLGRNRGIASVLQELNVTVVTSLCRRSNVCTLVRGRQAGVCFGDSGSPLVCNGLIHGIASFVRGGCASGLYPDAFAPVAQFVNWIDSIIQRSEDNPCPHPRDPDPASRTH

Neutrophil elastase [7] = biological target: T2, Neutrophil elastase (Homo sapiens, UniProt P08246); assay: In vitro inhibitory activity against human neutrophil elastase (HNE)
T2 sequence (P08246 whole entry): T1 sequence (whole entry)

[8] = biological target: T1, Neutrophil elastase (Homo sapiens); assay: Compound was evaluated in vivo for the inhibition of elastase in hamster bronchoalveolar lavage (BAL) 6 hour after an intratracheal dose of IL-8 at a concentration 20 mg/kg; assay type: organism-based; parameters: dose 20 mg/kg; conditions: Cricetulus griseus; Lung
[9] = biological target: T1, Neutrophil elastase (Homo sapiens); assay: Compound was evaluated in vivo for the inhibition of elastase in hamster bronchoalveolar lavage (BAL) 6 hour after an intratracheal dose of IL-8 at a concentration 40 mg/kg; assay type: organism-based; parameters: dose 40 mg/kg; conditions: Cricetulus griseus; Lung
[10] = biological target: T1, Neutrophil elastase (Homo sapiens); assay: In vitro inhibition of human whole blood (HWB) elastase at a concentration of 10 uM except in buffer
[11] = biological target: T1, Neutrophil elastase (Homo sapiens); assay: In vitro percent inhibition of human whole blood (HWB) elastase at a concentration of 10 uM except in plasma; assay type: tissue-based
Neutrophil elastase [12] = biological target: T2, Neutrophil elastase; assay: In vitro inhibitory activity in human whole blood (HWB) elastase at a concentration of 10; assay type: tissue-based
[13] = Half life after iv administration at 3 mg/kg in hamster; assay type: ADME, organism-based; parameters: dose 3 mg/kg, route intravenous; conditions: cricetinae, in vivo
[14] = Half life after po administration of 10 mg/kg in hamster; assay type: ADME, organism-based; parameters: dose 10 mg/kg, route oral; conditions: cricetinae, in vivo
[15] = Volume distribution after iv administration at 3 mg/kg in hamster; assay type: ADME, organism-based; parameters: dose 3 mg/kg, route intravenous; conditions: cricetinae, in vivo
[16] = Bioavailability after po administration of 10 mg/kg in hamster; assay type: ADME, organism-based, Cricetulus griseus; conditions: chinese hamster, in vivo
Hamster [17] = assay: Plasma clearance after iv administration at 3 mg/kg in hamster; assay type: ADME, organism-based; parameters: dose 3 mg/kg, route intravenous; conditions: cricetinae, in vivo
[18] = biological target: T1, Neutrophil elastase (Homo sapiens); conditions: Cricetulus griseus; Liver; Microsome; 10 mg/kg
Description: Compound was evaluated for the inhibition of elastase in hamster liver microsomes at a concentration of 10 mg/kg

[19] = biological target: T1, Neutrophil elastase (Homo sapiens); conditions: Cricetulus griseus; Liver; Microsome; 20 mg/kg
Description: Compound was evaluated for the inhibition of elastase in hamster liver microsomes at a concentration of 20 mg/kg

[20] = biological target: T1, Neutrophil elastase (Homo sapiens); assay: In vitro inhibition of human whole blood (HWB) elastase at a concentration of 10 uM
Neutrophil elastase [21] = biological target: T2, Neutrophil elastase; assay: In vitro inhibitory activity in human whole blood (HWB) elastase; assay type: tissue-based

Clp (Hamster [1]): 200 mL/min/kg | half-life [2]: 30 min | solubility [3]: > 1000 µg/mL | Vd [4]: 8.1 L/kg | bioavailability [5]: 1% | inhibition [6]: 10% | IC50 (Neutrophil elastase [7]): 137 nM | inhibition [8]: 30% | inhibition [9]: 60%
Compound: CCC[C@H]1C(=O)N(S(=O)(=O)c2ccc3ccccc3c2)[C@H]2CCN(C(=O)CCN3CCCCC3)[C@H]12.Cl

IC50 (Neutrophil elastase [7]): 29 nM
Compound: C=CC[C@H]1C(=O)N(CCCCCC)[C@H]2CCN(C(=O)OCc3ccccc3)[C@H]12

inhibition [10]: 92% | inhibition [11]: 23%
Compound: C=CC[C@H]1C(=O)N(S(=O)(=O)c2ccc3ccccc3c2)[C@H]2CCN(C(=O)OCc3ccccc3)[C@H]12

IC50 (Neutrophil elastase [12]): 0.45 nM
Compound: CCC[C@@H](NC(=O)N1C(=O)C(CC)(CC)[C@@H]1Oc1ccc(C(=O)N2CCN(C)CC2)cc1)c1ccc2c(c1)OCO2

IC50 (Neutrophil elastase [7]): > 500 nM
Compound: C=CC[C@H]1C(=O)N[C@H]2CCN(C(=O)OCc3ccccc3)[C@@H]21

half-life [13]: 12 min | half-life [14]: 30 min | solubility [3]: > 1000 µg/mL | Vd [15]: 2.3 L/kg | bioavailability [16]: 49% | IC50 (Neutrophil elastase [7]): 140 nM | Clp (Hamster [17]): 140 mL/min/kg | inhibition [18]: 41% | inhibition [19]: 76%
Compound: CCC[C@H]1C(=O)N(S(C)(=O)=O)[C@H]2CCN(C(=O)CCN3CCCCC3)[C@H]12.Cl

IC50 (Neutrophil elastase [7]): 2 nM
Compound: C=CC[C@H]1C(=O)N(C(=O)OCC)[C@H]2CCN(C(=O)OCc3ccccc3)[C@H]12

inhibition [20]: 98%
Compound: C=CC[C@H]1C(=O)N(S(C)(=O)=O)[C@H]2CCN(C(=O)OCc3ccccc3)[C@H]12

IC50 (Neutrophil elastase [7]): 31 nM
Compound: C=CC[C@H]1C(=O)N(C(=O)NCC)[C@H]2CCN(C(=O)OCc3ccccc3)[C@H]12

IC50 (Neutrophil elastase [21]): > 10 nM
Compound: COC(=O)N[C@H](C(=O)N1CCC[C@H]1C(=O)N[C@H](C(=O)C(F)(F)F)C(C)C)C(C)C (Moc-Val-Pro-Val-CF3)

From ChEMBL document CHEMBL1133791, “Intracellular inhibition of human neutrophil elastase by orally active pyrrolidine-trans-lactams” (Bioorg Med Chem Lett, 2001)
